Drawing on BindingDB's records for doi:10.1021/jm00390a019 (1987), this text covers IC50 for ten compounds.

The target in the test is Gastrin/cholecystokinin type B receptor (Cavia porcellus). Briefly: Half-maximal inhibition of binding of [125I]gastrin to guinea pig gastric glands.
`O=C1Nc2ccccc2C1C[C@H]1N=C(c2ccccc2)c2cc(Cl)ccc2NC1=O` (stereo not given in full) had an IC50 of over 100 µM.

`CN1C(=O)[C@@H](Cc2cn(C)c3ccccc23)N=C(c2ccccc2)c2ccccc21`: the IC50 was determined as 67 µM.

Turning to `O=C(O)CN1C(=O)[C@@H](Cc2c[nH]c3ccccc23)N=C(c2ccccc2F)c2ccccc21` [CCK antagonist synthetic 13], the IC50 was 5 µM.

`O=C1Nc2ccc(Cl)cc2C(c2ccccc2)=N[C@@H]1COCc1ccccc1`: the IC50 worked out at 13 µM.

The compound `O=C(O)CCN1C(=O)[C@@H](Cc2c[nH]c3ccccc23)N=C(c2ccccc2F)c2ccccc21` yielded an IC50 of 5.8 µM.

For the compound `CC(C)CCN1C(=O)[C@@H](Cc2c[nH]c3ccccc23)N=C(c2ccccc2F)c2ccccc21`, the concentration for half-maximal inhibition (IC50) was 23 µM.

For `CC(C)CC(N)C(=O)N1CC(CC2N=C(c3ccccc3)c3ccccc3NC2=O)c2ccccc21` (stereo not given), the IC50 is over 100 µM.

For `CN1C(=O)[C@@H](Cc2c[nH]c3ccccc23)N=C(c2ccccc2)c2ccccc21`, the IC50 was determined as 21 µM.

The compound `CC(C)C[C@H]1N=C(c2ccccc2)c2cc(Cl)ccc2NC1=O` registered an IC50 of 38 µM.

`CCN1C(=O)[C@@H](Cc2c[nH]c3ccccc23)N=C(c2ccccc2F)c2ccccc21`: the IC50 was over 100 µM.
